Test system: Transplanted paddy rice plant
Experiment: Biological Test 1 (treatment on the 3rd day after transplantation): chemical injury to paddy rice
Format: in vivo
Set-up: scale not given here
Conditions: Treatment performed 3 days after transplantation
Protocol: (1) Preparation of Herbicide
Talc (57 parts by weight) and bentonite (40 parts by weight), both serving as carriers, and sodium alkylbenzenesulfate (3 parts by weight) serving as a surfactant were homogeneously ground and mixed to thereby obtain a carrier for water-dispersible powder.
Subsequently, to the water-dispersible powder (90 parts by weight), the triketone derivative (compound No. A-1) produced in Example I-1 (10 parts by weight) was added, and the resultant mixture was homogeneously ground and mixed to thereby obtain a herbicide.
(i) Biological Test 1 (Soaking in Water/Treatment on the 3rd Day After Transplantation)
A Wagner pot (1/2000 are) was filled with paddy soil, and seeds of barnyard grass were planted on the surface layer of the soil, and further, rice seedlings grown to the 2.5-leaf stage were transplanted.
Subsequently, water was poured in the pot to a height of 3 cm above the soil surface, and placed in a greenhouse where the temperature was maintained at 20-25° C., to thereby grow the plant under suitable conditions.
On the 3rd day after transplantation, the herbicide prepared in (1) above was applied to the plant in a predetermined amount. On the 30th day after treatment with the herbicide, weed-killing ratio, herbicidal effect, and extent of chemical injury to paddy rice were examined.
In Biological tests 1 and 2, herbicidal effect and extent of chemical injury were evaluated according to the below-described standards.
3) Chemical Injury to Paddy Rice
Chemical injury to paddy rice was evaluated according to the following criteria.

[1] = dose 100 g/ha, examined on the 30th day after treatment
[2] = dose 200 g/ha, examined on the 30th day after treatment

| SMILES | Chemical injury, Transplanted paddy rice plant (dose 100 g/ha) | Chemical injury, Transplanted paddy rice plant (dose 200 g/ha) | Chemical injury, Transplanted paddy rice plant [1] | Chemical injury, Transplanted paddy rice plant [2] |
| --- | --- | --- | --- | --- |
| CO/N=C1\CCS(=O)(=O)c2c(C)cc(C(=O)C3=C(N(C)C)CCCC3=O)c(C)c21 [B-55, 4-methoxyimino-5,8-dimethyl-6-(3-dimethylamino-1-oxocyclohexan-2-yl)carbonylthiochroman-1,1-1,1-dioxide] | 0 | 0 | – | – |
| CO/N=C1\CCS(=O)(=O)c2c(C)cc(C(=O)C3=C(N(C)OC)CCCC3=O)c(C)c21 [B-57, 4-methoxyimino-5,8-dimethyl-6-[3-(N-methoxymethyl)amino-1-oxocyclohexan-2-yl]carbonylthiochroman-1,1-1,1-dioxide] | 0 | 3 | – | – |
| CO/N=C1\CCS(=O)(=O)c2c(C)cc(C(=O)C3=C(Nc4ccc(C)cc4)CCCC3=O)c(C)c21 [B-58, 4-methoxyimino-5,8-dimethyl-6-[3-(4-methylphenyl)amino-1-oxocyclohexan-2-yl]carbonylthiochroman-1,1-1,1-dioxide] | 0 | 0 | – | – |
| CO/N=C1\CCS(=O)(=O)c2c(C)cc(C(=O)C3=C(Sc4ccc(C)cc4)CCCC3=O)c(C)c21 [B-59, 4-methoxyimino-5,8-dimethyl-6-[3-(4-methylphenyl)thio-1-oxocyclohexan-2-yl]carbonylthiochroman-1,1-1,1-dioxide] | 0 | 0 | – | – |
| CO/N=C1\CCS(=O)(=O)c2c(C)cc(C(=O)C3=C(S(=O)(=O)c4ccc(C)cc4)CCCC3=O)c(C)c21 [B-60, 4-methoxyimino-5,8-dimethyl-6-[3-(4-methylphenyl)sulfonyl-1-oxocyclohexan-2-yl]carbonylthiochroman-1,1-1,1-dioxide] | 0 | 0 | – | – |
| CCCSC1=C(C(=O)c2cc(C)c3c(c2C)/C(=N/OC)CCS3(=O)=O)C(=O)CCC1 [B-61, 4-methoxyimino-5,8-dimethyl-6-[3-(3-propyl)thio-1-oxocyclohexan-2-yl)carbonylthiochroman-1,1-1,1-dioxide] | 0 | 0 | – | – |
| CCCS(=O)(=O)C1=C(C(=O)c2cc(C)c3c(c2C)/C(=N/OC)CCS3(=O)=O)C(=O)CCC1 [B-62, 4-methoxyimino-5,8-dimethyl-6-[3-(3-propyl)sulfonyl-1-oxocyclohexan-2-yl]carbonylthiochroman-1,1-1,1-dioxide] | 0 | 0 | – | – |
| Cc1c(C(=O)C2=C(Cl)CCCC2=O)ccc2c1C(=O)C(C)(C)CS2(=O)=O [B-63] | 3 | 5 | – | – |
| Cc1c(C(=O)C2=C(Sc3ccc(Cl)cc3)CCCC2=O)ccc2c1C(=O)C(C)(C)CS2(=O)=O [B-64, 3,3,5-trimethyl-6-[3-(4-chloro)thio-1-oxocyclohexan-2-yl]carbonylthiochroman-4-one-1,1-dioxide] | 2 | 5 | – | – |
| Cc1c(C(=O)C2=C(S(=O)(=O)c3ccc(Cl)cc3)CCCC2=O)ccc2c1C(=O)C(C)(C)CS2(=O)=O [B-65] | 3 | 4 | – | – |
| Cc1cc(C(=O)C2=C(Cl)CCCC2=O)c(C)c2c1S(=O)(=O)CCC2OC(C)C (stereo not shown) [B-66] | 0 | 4 | – | – |
| CSC1=C(C(=O)c2cc(C)c3c(c2C)C(OC(C)C)CCS3(=O)=O)C(=O)CCC1 (stereo not shown) [B-67] | 0 | 1 | – | – |
| Cc1cc(C(=O)C2=C(Sc3ccccc3)CCCC2=O)c(C)c2c1S(=O)(=O)CCC2OC(C)C (stereo not shown) [B-68, 4-(2-propyl)oxy-5,8-dimethyl-6-(3-phenylthio-1-oxocyclohexan-2-yl)carbonylthiochroman-1,1-dioxide] | 0 | 0 | – | – |
| Cc1cc(C(=O)C2=C(S(C)(=O)=O)CCCC2=O)c(C)c2c1S(=O)(=O)CCC2OC(C)C (stereo not shown) [B-69] | 0 | 1 | – | – |
| Cc1cc(C(=O)C2=C(SCc3ccccc3)CCCC2=O)c(C)c2c1S(=O)(=O)CCC2OC(C)C (stereo not shown) [B-70] | 0 | 0 | – | – |
| Cc1cc(C(=O)C2=C(S(=O)(=O)Cc3ccccc3)CCCC2=O)c(C)c2c1S(=O)(=O)CCC2OC(C)C (stereo not shown) [B-71] | 0 | 1 | – | – |
| CO/N=C1\CCS(=O)(=O)c2ccc(C(=O)C3=C(Cl)CCCC3=O)c(C)c21 [B-72] | 0 | 0 | – | – |
| CO/N=C1\CCS(=O)(=O)c2ccc(C(=O)C3=C(SC)CCCC3=O)c(C)c21 [B-73] | 0 | 0 | – | – |
| CO/N=C1\CCS(=O)(=O)c2ccc(C(=O)C3=C(Sc4ccccc4)CCCC3=O)c(C)c21 [B-74, 4-methoxyimino-5-methyl-6-(3-phenylthio-1-oxocyclohexan-2-yl)carbonylthiochroman-1,1-dioxide] | 0 | 0 | – | – |
| CO/N=C1\CCS(=O)(=O)c2ccc(C(=O)C3=C(S(=O)(=O)c4ccccc4)CCCC3=O)c(C)c21 [B-75] | 0 | 1 | – | – |
| CO/N=C1\CCS(=O)(=O)c2ccc(C(=O)C3=C(N(C)OC)CCCC3=O)c(C)c21 [B-76, 4-methoxyimino-5-methyl-6-[3-(N-methoxymethyl)amino-1-oxocyclohexan-2-yl]carbonylthiochroman-1,1-dioxide] | 0 | 1 | – | – |
| O=C1CCCC(Cl)=C1C(=O)c1ccc2c(c1Cl)CCCS2(=O)=O [B-77] | 0 | 0 | – | – |
| O=C1CCCC(Sc2ccccc2)=C1C(=O)c1ccc2c(c1Cl)CCCS2(=O)=O [B-78] | 0 | 0 | – | – |
| CSC1=C(C(=O)c2ccc3c(c2Cl)CCCS3(=O)=O)C(=O)CCC1 [B-79] | 0 | 0 | – | – |
| CS(=O)(=O)C1=C(C(=O)c2ccc3c(c2Cl)CCCS3(=O)=O)C(=O)CCC1 [B-80] | 0 | 0 | – | – |
| O=C1CCCC(O)=C1C(=O)c1cc2c(cc1[N+](=O)[O-])OCO2 [Comparative Example I-1, reference compound] | – | – | 3 | 4 |
| O=C1CCCC(O)=C1C(=O)c1cccc2c1OCCO2 [Comparative Example I-2, reference compound] | – | – | 0 | 0 |
| Cc1cc(C(=O)C2=C(O)CCCC2=O)c(C)c2c1S(=O)(=O)CC2C (stereo not shown) [Comparative Example I-3, reference compound] | – | – | 3 | 4 |
| Cc1cc(C(=O)C2=C(O)CCCC2=O)c(C)c2c1S(=O)(=O)C(C)C2 (stereo not shown) [Comparative Example I-4, reference compound] | – | – | 2 | 4 |
